Oligonucleotides are written 5' to 3', each unit as a sugar letter and its base; * is a phosphorothioate linkage, no mark a phosphodiester; rarer units and linkages stand in square brackets, end groups in braces. Plain capitals give the bases only. d = 2'-deoxy (DNA); r = 2'-OH (RNA)
What was measured:
Type in all cases: cell-based
[1] = system: human PBMC; test: Human PBMC IFN-α secretion, ELISA
Procedure: (§1) In order to investigate the possibility of using cholesteryl ester-modified RNA oligomer in place of RNA oligomer plus cationic lipid, RNA oligomer GUGUGUGU was prepared with (R 1058) and without (R 1006) a 3′ cholesteryl ester modification. These two RNA oligomers with and without DOTAP, were added over a range of concentrations to overnight cultures of human PBMC. Culture supernatants were harvested, and human TNF-α, IL-12 p40, and IFN-α were measured by ELISA using matched antibody pairs from BD-Pharmingen according to the manufacturer's protocol.
(§2) RNA oligomers GUGUGUGU, GUGUGUG, GUGUGU, GUGUG, GUGU, GUG, and GU, with and without DOTAP, were added over a range of concentrations to overnight cultures of human PBMC. Culture supernatants were harvested, and human TNF-α, IL-12 p40, and IFN-α were measured by ELISA using matched antibody pairs from BD-Pharmingen according to the manufacturer's protocol.
(§3) RNA oligomers, with and without DOTAP, were added over a range of concentrations to overnight cultures of human PBMC. Culture supernatants were harvested, and human TNF-α, IL-12 p40, and IFN-α were measured by ELISA using matched antibody pairs from BD-Pharmingen according to the manufacturer's protocol.
In like manner, an all-phosphodiester 40-mer capable of forming a stem-loop structure and having a base sequence as provided by 5′-[…]-3′ (R 1041; SEQ ID NO:10) was synthesized and tested in overnight culture with human PBMC.

[2] = system: human PBMC; test: Human PBMC TNF-α secretion, ELISA; settings: for TNF response of human PBMC: FIG. 15, 30 μM; for TNF-α response of human PBMC (in words): Example 1, FIG. 2, RNA 50 μg/ml; for TNF-α response of human PBMC (in words) / dose-response of TNF-α secretion: 16 hours; for dose-response of TNF-α secretion: Example 2, 10, 3 or 1 μg RNA with 10 μg DOTAP per 200 μl well
Procedure: (§4) Human peripheral blood mononuclear cells (PBMCs) were isolated from healthy donors, plated at 3×10^5 cells/well, stimulated in vitro with various test and control immunostimulatory agents for 16 hours, and then analyzed by enzyme-linked immunosorbent assay (ELISA) using matched antibody pairs from BD-Pharmingen for secreted cytokines IL-12 p40 and TNF-α, performed according to the manufacturer's protocol. Also included were certain negative controls, including medium alone and DOTAP (10 μg/200 μl culture well; “Liposomes”) alone. The control immunostimulatory agents included the imidazoquinolone R-848 (2 μg/ml), lipopolysaccharide (LPS; 1 μg/ml), Pam3Cys (5 μg/ml), poly IC (50 μg/ml), and CpG DNA (50 μg/ml). These are reported ligands for TLR7, TLR4, TLR2, TLR3, and TLR9, respectively. Test immunostimulatory agents included the following RNA molecules, each at 50 μg/ml, with and without DOTAP (10 μg total “with Liposomes” and “without Liposomes”, respectively): GUGUUUAC alone; GUAGGCAC alone; GUGUUUAC in combination with GUAGGCAC; GUAGGA; GAAGGCAC; CUAGGCAC; CUCGGCAC; and CCCCCCCC. These RNA oligonucleotides each contained a phosphorothioate linkage between the penultimate and 3′ terminal nucleoside.
The experiments described in the preceding example were repeated with varied concentrations of RNA oligonucleotides in order to assess the dose-response behavior of human PBMCs to G,U-containing RNA oligonucleotides of the invention. A total of 10, 3 or 1 μg RNA was added to 10 μg DOTAP and then added to the 200 μl culture wells. After 16 hours IL-12 p40 and TNF-α ELISAs were performed as described in Example 1.
as §1, §2, §3
Human PBMC were cultured overnight in the presence of added DNA:RNA conjugate, with and without DOTAP. Culture supernatants were harvested and human TNF-α, IL-6, IL-12 p40, IP-10, and IFN-α were measured by ELISA using matched antibody pairs from BD-Pharmingen according to the manufacturer's protocol.
Human PBMC were cultured overnight in the presence of various concentrations (1, 3, and 10 μg/ml) of tRNA obtained from wheat germ, bovine, yeast, and E. coli sources, added to the culture medium with and without DOTAP. Culture supernatants were harvested and human TNF-α and IL-12 p40 were measured by ELISA using matched antibody pairs from BD-Pharmingen according to the manufacturer's protocol. […] In addition, E. coli tRNA at 3 and 10 μg/ml induced minor amounts of both cytokines even without DOTAP. […]
FIG. 10 depicts the responsiveness of human PBMC to stringent response factor (SRF). SRF is produced by rapidly growing bacteria (in this case Listeria monocytogenes) in rich media until their late log phase. The bacteria were pelleted and resuspended in an equal volume of PBS for 24 h. The mixture is centrifuged to remove the bacteria. […]

[3] = system: human PBMC; test: Human PBMC IL-12 p40 secretion, ELISA; settings: for IL-12 p40 response of human PBMC (in words): Example 1, FIG. 1, RNA 50 μg/ml with and without DOTAP, R-848 2 μg/ml, LPS 1 μg/ml, Pam3Cys 5 μg/ml, poly IC 50 μg/ml; for IL-12 p40 response of human PBMC (in words) / dose-response of IL-12 p40 secretion: 16 hours; for dose-response of IL-12 p40 secretion: Example 2, FIG. 3, 10, 3 or 1 μg RNA with 10 μg DOTAP per 200 μl well; for EC50 / IL-12 p40 max: Table 2, oligomer length, human PBMC overnight, including DOTAP
Procedure: as §4
The experiments described in the preceding example were repeated with varied concentrations of RNA oligonucleotides in order to assess the dose-response behavior of human PBMCs to G,U-containing RNA oligonucleotides of the invention. A total of 10, 3 or 1 μg RNA was added to 10 μg DOTAP and then added to the 200 μl culture wells. After 16 hours IL-12 p40 and TNF-α ELISAs were performed as described in Example 1. […]
RNA oligomers GUGUGUGU, GUGUGUG, GUGUGU, GUGUG, GUGU, GUG, and GU, with and without DOTAP, were added over a range of concentrations to overnight cultures of human PBMC. Culture supernatants were harvested, and human TNF-α, IL-12 p40, and IFN-α were measured by ELISA using matched antibody pairs from BD-Pharmingen according to the manufacturer's protocol. […]

[4] = Table 1, human PBMC overnight culture, with DOTAP
[5] = Table 1, human PBMC overnight culture, with DOTAP, read-out: TNF-α + DOTAP EC50
[6] = Table 1, human PBMC overnight culture, without DOTAP
[7] = Table 1, human PBMC overnight culture, without DOTAP, read-out: TNF-α − DOTAP EC50
[8] = Table 2, oligomer length, human PBMC overnight, including DOTAP
[9] = Table 2, oligomer length, human PBMC overnight, including DOTAP, read-out: TNF-α EC50
[10] = Table 3, internucleoside linkages, human PBMC overnight, including DOTAP
[11] = Table 3, internucleoside linkages, human PBMC overnight, including DOTAP, read-out: TNF-α EC50
[12] = Table 1, human PBMC overnight culture, with DOTAP, read-out: IFN-α + DOTAP EC50
[13] = Table 2, oligomer length, human PBMC overnight, including DOTAP, read-out: IFN-α EC50
[14] = Table 3, internucleoside linkages, human PBMC overnight, including DOTAP, read-out: IFN-α EC50

## 5′-CACACACUGCUUAAGCGCUUGCCUGCUUAAGUAGUGUGUG-3′ (RNA, phosphodiester; forms stem-loop structure) [R 1041, all-phosphodiester 40-mer capable of forming a stem-loop structure]
[1]; overnight culture with human PBMC
  IFN-α induction maximum: 5000 pg/mL
[1]; overnight culture with human PBMC, read-out: IFN-α induction EC50
  EC50: < 0.1 µM

## 5′-GUUGUGGUUGUGGUUGUG-3′ (chemistry not given here) [SEQ ID NO:1, G,U-rich RNA oligonucleotide]
[2]
  TNF response of human PBMC: responsive

## CCCCCCCC
[2]
  TNF-α response of human PBMC (in words): did not secrete significant amounts
  dose-response of TNF-α secretion: did not appear to secrete significant amounts
[3]
  IL-12 p40 response of human PBMC (in words): did not secrete significant amounts
  dose-response of IL-12 p40 secretion: appeared not to secrete

## CUAGGCAC
[2]
  dose-response of TNF-α secretion: increasing amounts
[3]
  dose-response of IL-12 p40 secretion: increasing amounts

## CUCGGCAC
[2]
  dose-response of TNF-α secretion: increasing amounts
[3]
  dose-response of IL-12 p40 secretion: increasing amounts

## G*U*G*U*G*U*G*U [R 1006]
[2]; [4]
  TNF-α + DOTAP max: 40000 pg/mL
[2]; [5]
  EC50: 2.8 µM
[2]; [6]
  TNF-α − DOTAP max: 2200 pg/mL
[2]; [7]
  EC50: 7.8 µM
[2]; [8]
  TNF-α max: 40000 pg/mL
[2]; [9]
  EC50: 2.8 µM
[2]; [10]
  TNF-α max: 40000 pg/mL
[2]; [11]
  EC50: 2.8 µM
[3]
  EC50: 1.6 µM
  IL-12 p40 max: 7000 pg/mL
[1]; [4]
  IFN-α + DOTAP max: 5000 pg/mL
[1]; [12]
  EC50: 4.5 µM
[1]; [8]
  IFN-α max: 5000 pg/mL
[1]; [13]
  EC50: 4.5 µM
[1]; [10]
  IFN-α max: 5000 pg/mL
[1]; [14]
  EC50: 4.5 µM

## G*U*G*U*G*U*G*U_dG_dG*dG*dG*dG*dG (rG*rU*rG*rU*rG*rU*rG*rUdGdG*dG*dG*dG*dG) [R 1060]
[2]; Table 4, DNA:RNA conjugates, human PBMC overnight, including DOTAP
  TNF-α max: 20000 pg/mL
[2]; Table 4, DNA:RNA conjugates, human PBMC overnight, including DOTAP, read-out: TNF-α EC50
  EC50: 4.9 µM

## G*U_G*U*G*U*G*U [R 1054]
[2]; [10]
  TNF-α max: 40000 pg/mL
[2]; [11]
  EC50: 5.6 µM
[1]; [10]
  IFN-α max: 3700 pg/mL
[1]; [14]
  EC50: 6.7 µM

## G*U_G*U_G*U*G*U [R 1055]
[2]; [10]
  TNF-α max: 20000 pg/mL
[2]; [11]
  EC50: > 20 µM

## G*U_G*U_G*U_G*U [R 1056]
[2]; [10]
  TNF-α max: 12000 pg/mL
[2]; [11]
  EC50: > 20 µM

## GAAGGCAC
[2]
  TNF-α response of human PBMC (in words): did not secrete significant amounts
  dose-response of TNF-α secretion: did not appear to secrete significant amounts
[3]
  IL-12 p40 response of human PBMC (in words): did not secrete significant amounts
  dose-response of IL-12 p40 secretion: appeared not to secrete

## GUAGGA
[2]
  TNF-α response of human PBMC (in words): did not secrete significant amounts
[3]
  IL-12 p40 response of human PBMC (in words): little, if any immunostimulatory effect

## GUAGGCAC
[2]
  dose-response of TNF-α secretion: increasing amounts
[3]
  dose-response of IL-12 p40 secretion: increasing amounts

## GUG [R 1052]
[3]
  EC50: > 20 µM
  IL-12 p40 max: 6000 pg/mL
[1]; [8]
  IFN-α max: 800 pg/mL
[1]; [13]
  EC50: 5.5 µM

## GUGU [R 1051]
[3]
  EC50: > 20 µM
  IL-12 p40 max: 14000 pg/mL

## GUGUG [R 1050]
[2]; [8]
  TNF-α max: 40000 pg/mL
[2]; [9]
  EC50: 7.6 µM
[3]
  EC50: 3.9 µM
  IL-12 p40 max: 14000 pg/mL
[1]; [8]
  IFN-α max: 400 pg/mL
[1]; [13]
  EC50: 6.9 µM

## GUGUGU [R 1049]
[2]; [8]
  TNF-α max: 30000 pg/mL
[2]; [9]
  EC50: 6.7 µM
[3]
  EC50: 2.1 µM
  IL-12 p40 max: 8000 pg/mL
[1]; [8]
  IFN-α max: 3400 pg/mL
[1]; [13]
  EC50: 4.8 µM

## GUGUGUGU [R 1058]
[2]; [4]
  TNF-α + DOTAP max: 75000 pg/mL
[2]; [5]
  EC50: 0.2 µM
[2]; [6]
  TNF-α − DOTAP max: 3000 pg/mL
[2]; [7]
  EC50: 1 µM
[2]; both with and without DOTAP
  potency compared with R 1006 (cytokine induction in human PBMC): more potent
[1]; [4]
  IFN-α + DOTAP max: 3800 pg/mL
[1]; [12]
  EC50: 0.5 µM
[1]; [6]
  IFN-α − DOTAP max: 1500 pg/mL
[1]; Table 1, human PBMC overnight culture, without DOTAP, read-out: IFN-α − DOTAP EC50
  EC50: 0.5 µM

## GUGUUUAC
[2]
  dose-response of TNF-α secretion: increasing amounts
[3]
  dose-response of IL-12 p40 secretion: increasing amounts

## G_U_G_U_G_U_G_U [R 1057]
[1]; [10]
  IFN-α max: 6000 pg/mL
[1]; [14]
  EC50: 0.1 µM

## SEQ ID NO:19: G,U-rich DNA oligonucleotide counterpart of SEQ ID NO:1 (GUUGUGGUUGUGGUUGUG; DNA oligonucleotide, linkage chemistry not given here, further chemistry not given here) [reference compound]
[2]
  TNF response of human PBMC: not
